Source: PMC5834442, “Identifying inhibitors of the Leishmania inositol phosphorylceramide synthase with antiprotozoal activity using a yeast-based assay and ultra-high throughput screening platform” (Scientific Reports, 2018)

Test system: HepG2 cells
Test: Mammalian cell cytotoxicity assay (CellTiter-Glo)
Assay type: cell-based, human
Conditions: not given

SMILES | pSI v HepG2
O=C(O)C(F)(F)F.O=S(=O)(c1ccc2c(c1)CCN(Cc1ccc(F)cc1)CC2)n1cccc1 [CS100462-069A11B16] | 3.64
O=C(O)C(F)(F)F.O=S(=O)(c1ccc2c(c1)CCN(Cc1cccnc1)CC2)n1ccc2c(F)cccc21 [CS100462-069A14B4] | 2.07
N#Cc1ccc(N2CCCC[C@H]2c2cccnc2)c([N+](=O)[O-])c1.O=C(O)C(F)(F)F.O=C(O)C(F)(F)F [MA102475-064A1B46] | 1.28
O=C(O)C(F)(F)F.O=c1[nH]ccc2nc(NCCc3c[nH]cn3)nc(Nc3cccc(S(=O)(=O)N4CCOCC4)c3)c12 [N4347-22-1] | 1.00
N#Cc1ccccc1Cn1cc(C(=O)c2ccccc2)c2ccccc21 [ST/1274537] | 1.45

Same assay, conditions: Homo sapiens; -logIC50 mol against HepG2; read-out: PIC50 HepG2 (converted)

SMILES | IC50 [µM]
Cc1ncccc1Oc1ncc(Cl)cc1S(=O)(=O)Nc1cccc(Cl)c1F [AV207107-107A1] | > 100
O=C(O)C(F)(F)F.O=S(=O)(c1ccc2c(c1)CCN(Cc1ccc(F)cc1)CC2)n1cccc1 [CS100462-069A11B16] | > 100
O=C(O)C(F)(F)F.O=S(=O)(c1ccc2c(c1)CCN(Cc1cccnc1)CC2)n1ccc2c(F)cccc21 [CS100462-069A14B4] | 52.5
Cc1ccnc(-c2nn[nH]c2Br)c1 [LK45855-125A1] | > 100
N#Cc1ccc(N2CCCC[C@H]2c2cccnc2)c([N+](=O)[O-])c1.O=C(O)C(F)(F)F.O=C(O)C(F)(F)F [MA102475-064A1B46] | 95.5
O=C(O)C(F)(F)F.O=c1[nH]ccc2nc(NCCc3c[nH]cn3)nc(Nc3cccc(S(=O)(=O)N4CCOCC4)c3)c12 [N4347-22-1] | > 100
COc1ccc(CN2CCN(S(=O)(=O)c3ccc(OC(F)(F)F)cc3)CC2)cc1 [SC/122159] | > 100
CCCCCNC(=O)c1c(O)c2ccccc2[nH]c1=O [ST/243992] | > 100
COc1cccc(-c2csc(NC(=O)c3cccc(Cl)c3)c2C(=O)O)c1 [ST/266497] | > 100
O=C(Nc1nc2ccc([N+](=O)[O-])cc2s1)c1cc(Cl)sc1Cl [ST/489542] | 10
CNC(=O)c1ccsc1NC(=O)c1ccc([N+](=O)[O-])s1 [ST/492114] | > 100
O=C(Nc1ccc(OC(F)(F)F)cc1)Nc1ccc([N+](=O)[O-])cc1 [ST/500242] | 14.1
C=CCSc1nsc(NC(=O)Nc2ccc(Cl)cc2C(F)(F)F)n1 [ST/566960] | 23.4
O=C(Nc1nnc(C(F)(F)F)s1)c1ccc(Cl)cc1 [ST/570135] | 16.2
O=C(Nc1nnc(C(F)(F)F)s1)c1ccc([N+](=O)[O-])c(Cl)c1 [ST/640830] | 25.7
O=[N+]([O-])c1cc(NS(=O)(=O)c2ccc(Cl)c(C(F)(F)F)c2)ccc1F [ST/654862] | 38.9
Cc1cccc2sc(N(Cc3cccnc3)C(=O)C3CCCCC3)nc12 [ST/712281] | 85.1
Clc1cccc(Nc2nc(-c3ccncc3)cs2)c1 [ST/755059] | 32.4
O=C(Nc1ccccc1Cl)C(=Cc1cccc(F)c1)C(=O)Nc1ccccc1Cl [ST/786453] | 6.76
N#Cc1ccccc1Cn1cc(C(=O)c2ccccc2)c2ccccc21 [ST/1274537] | > 100

Same assay, conditions: selectivity: pIC50 axenic minus pIC50 HepG2

SMILES | pSI v HepG2
Cc1ncccc1Oc1ncc(Cl)cc1S(=O)(=O)Nc1cccc(Cl)c1F [AV207107-107A1] | 1.09
Cc1ccnc(-c2nn[nH]c2Br)c1 [LK45855-125A1] | 1.76
COc1ccc(CN2CCN(S(=O)(=O)c3ccc(OC(F)(F)F)cc3)CC2)cc1 [SC/122159] | 2.56
CCCCCNC(=O)c1c(O)c2ccccc2[nH]c1=O [ST/243992] | 1.68
COc1cccc(-c2csc(NC(=O)c3cccc(Cl)c3)c2C(=O)O)c1 [ST/266497] | 1.15
O=C(Nc1nc2ccc([N+](=O)[O-])cc2s1)c1cc(Cl)sc1Cl [ST/489542] | 0.89
CNC(=O)c1ccsc1NC(=O)c1ccc([N+](=O)[O-])s1 [ST/492114] | 2.05
O=C(Nc1ccc(OC(F)(F)F)cc1)Nc1ccc([N+](=O)[O-])cc1 [ST/500242] | 0.52
C=CCSc1nsc(NC(=O)Nc2ccc(Cl)cc2C(F)(F)F)n1 [ST/566960] | 1.67
O=C(Nc1nnc(C(F)(F)F)s1)c1ccc(Cl)cc1 [ST/570135] | 0.67
O=C(Nc1nnc(C(F)(F)F)s1)c1ccc([N+](=O)[O-])c(Cl)c1 [ST/640830] | 0.94
O=[N+]([O-])c1cc(NS(=O)(=O)c2ccc(Cl)c(C(F)(F)F)c2)ccc1F [ST/654862] | 0.97
Cc1cccc2sc(N(Cc3cccnc3)C(=O)C3CCCCC3)nc12 [ST/712281] | 1.43
Clc1cccc(Nc2nc(-c3ccncc3)cs2)c1 [ST/755059] | 0.68
O=C(Nc1ccccc1Cl)C(=Cc1cccc(F)c1)C(=O)Nc1ccccc1Cl [ST/786453] | 1.52

Test system: L. donovani (MHOM/SD/62/1S-CL2D, LdBOB) axenic amastigotes
Test: Leishmania donovani axenic amastigote dose response assay (resazurin)
Assay type: cell-based
Conditions: -logIC50 mol against L. donovani (LdBOB) axenic amastigotes, read-out: pIC50 Axenic (converted)

SMILES | IC50 [µM]
Cc1ncccc1Oc1ncc(Cl)cc1S(=O)(=O)Nc1cccc(Cl)c1F [AV207107-107A1] | 8.13
O=C(O)C(F)(F)F.O=S(=O)(c1ccc2c(c1)CCN(Cc1ccc(F)cc1)CC2)n1cccc1 [CS100462-069A11B16] | 0.0229
O=C(O)C(F)(F)F.O=S(=O)(c1ccc2c(c1)CCN(Cc1cccnc1)CC2)n1ccc2c(F)cccc21 [CS100462-069A14B4] | 0.447
Cc1ccnc(-c2nn[nH]c2Br)c1 [LK45855-125A1] | 1.74
N#Cc1ccc(N2CCCC[C@H]2c2cccnc2)c([N+](=O)[O-])c1.O=C(O)C(F)(F)F.O=C(O)C(F)(F)F [MA102475-064A1B46] | 5.01
O=C(O)C(F)(F)F.O=c1[nH]ccc2nc(NCCc3c[nH]cn3)nc(Nc3cccc(S(=O)(=O)N4CCOCC4)c3)c12 [N4347-22-1] | 10
COc1ccc(CN2CCN(S(=O)(=O)c3ccc(OC(F)(F)F)cc3)CC2)cc1 [SC/122159] | 0.275
CCCCCNC(=O)c1c(O)c2ccccc2[nH]c1=O [ST/243992] | 2.09
COc1cccc(-c2csc(NC(=O)c3cccc(Cl)c3)c2C(=O)O)c1 [ST/266497] | 7.08
O=C(Nc1nc2ccc([N+](=O)[O-])cc2s1)c1cc(Cl)sc1Cl [ST/489542] | 1.29
CNC(=O)c1ccsc1NC(=O)c1ccc([N+](=O)[O-])s1 [ST/492114] | 0.891
O=C(Nc1ccc(OC(F)(F)F)cc1)Nc1ccc([N+](=O)[O-])cc1 [ST/500242] | 4.27
C=CCSc1nsc(NC(=O)Nc2ccc(Cl)cc2C(F)(F)F)n1 [ST/566960] | 0.501
O=C(Nc1nnc(C(F)(F)F)s1)c1ccc(Cl)cc1 [ST/570135] | 3.47
O=C(Nc1nnc(C(F)(F)F)s1)c1ccc([N+](=O)[O-])c(Cl)c1 [ST/640830] | 2.95
O=[N+]([O-])c1cc(NS(=O)(=O)c2ccc(Cl)c(C(F)(F)F)c2)ccc1F [ST/654862] | 4.17
Cc1cccc2sc(N(Cc3cccnc3)C(=O)C3CCCCC3)nc12 [ST/712281] | 3.16
Clc1cccc(Nc2nc(-c3ccncc3)cs2)c1 [ST/755059] | 6.76
O=C(Nc1ccccc1Cl)C(=Cc1cccc(F)c1)C(=O)Nc1ccccc1Cl [ST/786453] | 0.204
N#Cc1ccccc1Cn1cc(C(=O)c2ccccc2)c2ccccc21 [ST/1274537] | 3.55

Test system: THP-1 macrophages
Test: Host cell toxicity in the intramacrophage assay
Assay type: cell-based, human
Conditions: Homo sapiens; THP-1 host cells in intramacrophage assay; read-out: pIC50 THP-1 (converted)

SMILES | IC50 [µM]
Cc1ncccc1Oc1ncc(Cl)cc1S(=O)(=O)Nc1cccc(Cl)c1F [AV207107-107A1] | > 50.1
O=C(O)C(F)(F)F.O=S(=O)(c1ccc2c(c1)CCN(Cc1ccc(F)cc1)CC2)n1cccc1 [CS100462-069A11B16] | 31.6
O=C(O)C(F)(F)F.O=S(=O)(c1ccc2c(c1)CCN(Cc1cccnc1)CC2)n1ccc2c(F)cccc21 [CS100462-069A14B4] | 33.9
Cc1ccnc(-c2nn[nH]c2Br)c1 [LK45855-125A1] | 32.4
N#Cc1ccc(N2CCCC[C@H]2c2cccnc2)c([N+](=O)[O-])c1.O=C(O)C(F)(F)F.O=C(O)C(F)(F)F [MA102475-064A1B46] | > 50.1
O=C(O)C(F)(F)F.O=c1[nH]ccc2nc(NCCc3c[nH]cn3)nc(Nc3cccc(S(=O)(=O)N4CCOCC4)c3)c12 [N4347-22-1] | > 50.1
COc1ccc(CN2CCN(S(=O)(=O)c3ccc(OC(F)(F)F)cc3)CC2)cc1 [SC/122159] | > 50.1
CCCCCNC(=O)c1c(O)c2ccccc2[nH]c1=O [ST/243992] | > 50.1
COc1cccc(-c2csc(NC(=O)c3cccc(Cl)c3)c2C(=O)O)c1 [ST/266497] | > 50.1
CNC(=O)c1ccsc1NC(=O)c1ccc([N+](=O)[O-])s1 [ST/492114] | > 50.1

Same assay, conditions: selectivity: pIC50 InMac minus pIC50 THP-1

SMILES | pSI v THP-1
Cc1ncccc1Oc1ncc(Cl)cc1S(=O)(=O)Nc1cccc(Cl)c1F [AV207107-107A1] | 0.00
O=C(O)C(F)(F)F.O=S(=O)(c1ccc2c(c1)CCN(Cc1ccc(F)cc1)CC2)n1cccc1 [CS100462-069A11B16] | 0.98
O=C(O)C(F)(F)F.O=S(=O)(c1ccc2c(c1)CCN(Cc1cccnc1)CC2)n1ccc2c(F)cccc21 [CS100462-069A14B4] | 1.23
Cc1ccnc(-c2nn[nH]c2Br)c1 [LK45855-125A1] | -0.01
N#Cc1ccc(N2CCCC[C@H]2c2cccnc2)c([N+](=O)[O-])c1.O=C(O)C(F)(F)F.O=C(O)C(F)(F)F [MA102475-064A1B46] | 1.39
O=C(O)C(F)(F)F.O=c1[nH]ccc2nc(NCCc3c[nH]cn3)nc(Nc3cccc(S(=O)(=O)N4CCOCC4)c3)c12 [N4347-22-1] | 0.11
COc1ccc(CN2CCN(S(=O)(=O)c3ccc(OC(F)(F)F)cc3)CC2)cc1 [SC/122159] | 0.15
CCCCCNC(=O)c1c(O)c2ccccc2[nH]c1=O [ST/243992] | 0.00
COc1cccc(-c2csc(NC(=O)c3cccc(Cl)c3)c2C(=O)O)c1 [ST/266497] | 0.04
CNC(=O)c1ccsc1NC(=O)c1ccc([N+](=O)[O-])s1 [ST/492114] | 1.55

Test system: intra-macrophage Leishmania donovani amastigotes
Test: Intramacrophage Leishmania donovani assay (high content imaging)
Assay type: cell-based
Conditions: Leishmania donovani; intramacrophage L. donovani; read-out: pIC50 InMac (converted)

SMILES | IC50 [µM]
Cc1ncccc1Oc1ncc(Cl)cc1S(=O)(=O)Nc1cccc(Cl)c1F [AV207107-107A1] | > 50.1
O=C(O)C(F)(F)F.O=S(=O)(c1ccc2c(c1)CCN(Cc1ccc(F)cc1)CC2)n1cccc1 [CS100462-069A11B16] | 3.31
O=C(O)C(F)(F)F.O=S(=O)(c1ccc2c(c1)CCN(Cc1cccnc1)CC2)n1ccc2c(F)cccc21 [CS100462-069A14B4] | 2
Cc1ccnc(-c2nn[nH]c2Br)c1 [LK45855-125A1] | 33.1
N#Cc1ccc(N2CCCC[C@H]2c2cccnc2)c([N+](=O)[O-])c1.O=C(O)C(F)(F)F.O=C(O)C(F)(F)F [MA102475-064A1B46] | 2.04
O=C(O)C(F)(F)F.O=c1[nH]ccc2nc(NCCc3c[nH]cn3)nc(Nc3cccc(S(=O)(=O)N4CCOCC4)c3)c12 [N4347-22-1] | 38.9
COc1ccc(CN2CCN(S(=O)(=O)c3ccc(OC(F)(F)F)cc3)CC2)cc1 [SC/122159] | 35.5
CCCCCNC(=O)c1c(O)c2ccccc2[nH]c1=O [ST/243992] | > 50.1
COc1cccc(-c2csc(NC(=O)c3cccc(Cl)c3)c2C(=O)O)c1 [ST/266497] | 45.7
CNC(=O)c1ccsc1NC(=O)c1ccc([N+](=O)[O-])s1 [ST/492114] | 1.41
